Experimental findings from ChEMBL document CHEMBL5465560, “Selectivity Literature for EUbOPEN Chemogenomic Library” (2024) are described below.

Experiment [1] deals with Mitogen-activated protein kinase 14 (Homo sapiens, UniProt Q16539). Put plainly: Selectivity interaction (Kinase panel (DSF assay)) EUB0001558a MAPK14. On the technique in general: DSF heats the sample and reads unfolding from a dye or from intrinsic fluorescence.
The target in the next experiment is Focal adhesion kinase 1 (Homo sapiens, UniProt Q05397). Put plainly: Selectivity interaction (Ambit KINOMEscan and KiNATiv profiling in Jurkat cells) EUB0000090b PTK2. The class given is cell-based. The conditions noted are these: at 1 µM.
Experiment [2] can be described thus: Selectivity interaction (KinomeScan (DiscoverX)) EUB0000655a PKNB. As to conditions: at 10 µM.
Experiment [3] deals with T1, Serine/threonine-protein kinase TBK1 (Homo sapiens) (UniProt Q9UHD2).
T1 sequence (whole entry): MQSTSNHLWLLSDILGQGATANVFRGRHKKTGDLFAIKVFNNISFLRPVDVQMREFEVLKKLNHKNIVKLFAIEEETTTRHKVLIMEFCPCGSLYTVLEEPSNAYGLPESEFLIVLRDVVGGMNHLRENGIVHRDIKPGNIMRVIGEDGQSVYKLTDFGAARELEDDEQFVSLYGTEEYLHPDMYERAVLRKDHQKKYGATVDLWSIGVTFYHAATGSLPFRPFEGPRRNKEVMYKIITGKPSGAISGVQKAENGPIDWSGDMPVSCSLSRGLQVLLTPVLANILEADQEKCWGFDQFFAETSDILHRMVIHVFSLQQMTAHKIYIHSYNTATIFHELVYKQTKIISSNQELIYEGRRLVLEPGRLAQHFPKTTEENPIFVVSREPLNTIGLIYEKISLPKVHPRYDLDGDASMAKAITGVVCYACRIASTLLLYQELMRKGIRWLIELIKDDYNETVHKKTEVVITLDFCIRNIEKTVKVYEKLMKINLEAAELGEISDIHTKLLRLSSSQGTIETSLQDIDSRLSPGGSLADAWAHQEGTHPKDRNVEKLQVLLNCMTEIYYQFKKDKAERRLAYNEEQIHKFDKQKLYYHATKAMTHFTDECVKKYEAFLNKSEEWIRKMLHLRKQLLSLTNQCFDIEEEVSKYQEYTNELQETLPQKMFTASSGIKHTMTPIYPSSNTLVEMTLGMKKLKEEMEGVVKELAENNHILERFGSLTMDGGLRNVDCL
Put plainly: Selectivity interaction (KinomeScan (DiscoverX)) EUB0000695a TBK1. As to conditions: at 100 nM.

The target in experiment [4] is Glycogen synthase kinase-3 alpha (Homo sapiens, UniProt P49840). Put plainly: Selectivity interaction (Rxn Biology Kinase assay) EUB0001632a GSK3A. The conditions noted are these: at 10 µM.
Experiment [5] deals with T2, Interleukin-1 receptor-associated kinase 4 (Homo sapiens) (UniProt Q9NWZ3).
T2 sequence (whole entry): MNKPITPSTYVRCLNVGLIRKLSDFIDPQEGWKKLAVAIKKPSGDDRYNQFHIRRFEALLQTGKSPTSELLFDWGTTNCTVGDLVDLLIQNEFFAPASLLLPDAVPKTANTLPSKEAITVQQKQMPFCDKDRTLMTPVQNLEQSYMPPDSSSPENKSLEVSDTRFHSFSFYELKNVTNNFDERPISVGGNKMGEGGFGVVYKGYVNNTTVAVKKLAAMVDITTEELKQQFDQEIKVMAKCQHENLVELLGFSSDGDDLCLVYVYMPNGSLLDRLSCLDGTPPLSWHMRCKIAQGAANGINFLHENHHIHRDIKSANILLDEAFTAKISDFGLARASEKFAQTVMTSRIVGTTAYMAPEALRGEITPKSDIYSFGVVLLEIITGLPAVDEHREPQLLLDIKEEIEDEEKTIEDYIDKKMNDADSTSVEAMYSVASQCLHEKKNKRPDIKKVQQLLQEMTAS
Put plainly: Selectivity interaction (Kinase panel (Z-LYTE Assay)) EUB0001632a IRAK4. As to conditions: at 10 µM.

Experiment [6] deals with Serine/threonine-protein kinase PLK3 (Homo sapiens, UniProt Q9H4B4). The experiment is described as follows: Selectivity interaction (KinomeScan (DiscoverX)) EUB0000607a PLK3. The conditions noted are these: at 10 µM.
For experiment [7], the target named is Serine/threonine-protein kinase Nek7 (Homo sapiens) (UniProt Q8TDX7). Put plainly: Selectivity interaction (ActivX KiNativ screen (kinase selectivity in THP-1 cell lysates)) EUB0000639a NEK7. The conditions noted are these: lysate, at 1 µM. The class given is subcellular.
In experiment [8] the target is Serine/threonine-protein kinase Nek4 (Homo sapiens) (UniProt P51957). The experiment is described as follows: Selectivity interaction (Kinase panel (Invitrogen)) EUB0000639a NEK4. The conditions noted are these: at 200 nM.
For experiment [9], the target named is AP2-associated protein kinase 1 (Homo sapiens, UniProt Q2M2I8). Put plainly: Selectivity interaction (Kinase panel (DSF assay)) EUB0001559a AAK1.
Experiment [10] deals with Wee1-like protein kinase 2 (Homo sapiens) (UniProt P0C1S8). Put plainly: Selectivity interaction (KinomeScan (DiscoverX)) EUB0000595a WEE2. The conditions noted are these: at 10 µM.
The target in experiment [11] is Ribosomal protein S6 kinase alpha-4 (Homo sapiens) (UniProt O75676). The experiment is described as follows: Selectivity interaction (KinomeScan (DiscoverX)) EUB0001619a RPS6KA4. As to conditions: at 1 µM.
Experiment [12] addresses T3, Tyrosine-protein kinase Mer (Homo sapiens) (UniProt Q12866).
T3 sequence (whole entry): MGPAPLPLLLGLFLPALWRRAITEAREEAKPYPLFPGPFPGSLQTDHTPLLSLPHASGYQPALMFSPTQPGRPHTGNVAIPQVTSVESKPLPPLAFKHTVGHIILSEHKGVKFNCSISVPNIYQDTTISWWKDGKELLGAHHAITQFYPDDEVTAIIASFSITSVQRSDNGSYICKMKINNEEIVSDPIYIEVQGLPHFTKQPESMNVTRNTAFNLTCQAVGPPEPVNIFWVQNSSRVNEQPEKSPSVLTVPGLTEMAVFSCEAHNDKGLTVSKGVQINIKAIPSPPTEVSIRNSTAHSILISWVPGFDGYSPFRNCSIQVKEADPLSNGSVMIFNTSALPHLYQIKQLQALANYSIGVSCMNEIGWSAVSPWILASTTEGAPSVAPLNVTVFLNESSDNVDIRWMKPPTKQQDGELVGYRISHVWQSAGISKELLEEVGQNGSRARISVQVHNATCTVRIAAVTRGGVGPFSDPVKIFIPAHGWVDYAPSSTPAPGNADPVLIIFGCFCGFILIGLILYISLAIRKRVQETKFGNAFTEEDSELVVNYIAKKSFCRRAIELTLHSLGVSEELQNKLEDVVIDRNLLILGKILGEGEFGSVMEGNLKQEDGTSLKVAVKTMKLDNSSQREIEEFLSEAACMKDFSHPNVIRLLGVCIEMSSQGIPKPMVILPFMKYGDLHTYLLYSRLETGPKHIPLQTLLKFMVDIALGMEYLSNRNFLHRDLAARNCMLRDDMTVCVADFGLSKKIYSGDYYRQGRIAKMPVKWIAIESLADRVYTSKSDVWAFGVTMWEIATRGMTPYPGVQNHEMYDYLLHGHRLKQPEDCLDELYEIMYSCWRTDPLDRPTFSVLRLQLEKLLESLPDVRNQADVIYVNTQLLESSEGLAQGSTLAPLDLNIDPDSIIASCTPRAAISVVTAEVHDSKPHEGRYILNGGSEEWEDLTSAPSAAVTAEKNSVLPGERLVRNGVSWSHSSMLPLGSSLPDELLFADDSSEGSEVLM
The experiment is described as follows: Selectivity interaction (KinomeScan (DiscoverX)) EUB0000618a MERTK. The conditions noted are these: at 10 µM.

Serine/threonine-protein kinase Nek7 (Homo sapiens), sequence (Q8TDX7 whole entry, looked up): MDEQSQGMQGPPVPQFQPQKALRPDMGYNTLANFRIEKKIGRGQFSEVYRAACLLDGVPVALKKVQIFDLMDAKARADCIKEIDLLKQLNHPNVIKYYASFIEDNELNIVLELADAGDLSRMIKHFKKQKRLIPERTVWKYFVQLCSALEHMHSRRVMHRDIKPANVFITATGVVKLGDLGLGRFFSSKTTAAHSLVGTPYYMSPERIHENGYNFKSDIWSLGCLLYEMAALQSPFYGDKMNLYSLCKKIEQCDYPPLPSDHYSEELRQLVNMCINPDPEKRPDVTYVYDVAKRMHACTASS
Ribosomal protein S6 kinase alpha-4 (Homo sapiens), sequence (O75676 whole entry, looked up): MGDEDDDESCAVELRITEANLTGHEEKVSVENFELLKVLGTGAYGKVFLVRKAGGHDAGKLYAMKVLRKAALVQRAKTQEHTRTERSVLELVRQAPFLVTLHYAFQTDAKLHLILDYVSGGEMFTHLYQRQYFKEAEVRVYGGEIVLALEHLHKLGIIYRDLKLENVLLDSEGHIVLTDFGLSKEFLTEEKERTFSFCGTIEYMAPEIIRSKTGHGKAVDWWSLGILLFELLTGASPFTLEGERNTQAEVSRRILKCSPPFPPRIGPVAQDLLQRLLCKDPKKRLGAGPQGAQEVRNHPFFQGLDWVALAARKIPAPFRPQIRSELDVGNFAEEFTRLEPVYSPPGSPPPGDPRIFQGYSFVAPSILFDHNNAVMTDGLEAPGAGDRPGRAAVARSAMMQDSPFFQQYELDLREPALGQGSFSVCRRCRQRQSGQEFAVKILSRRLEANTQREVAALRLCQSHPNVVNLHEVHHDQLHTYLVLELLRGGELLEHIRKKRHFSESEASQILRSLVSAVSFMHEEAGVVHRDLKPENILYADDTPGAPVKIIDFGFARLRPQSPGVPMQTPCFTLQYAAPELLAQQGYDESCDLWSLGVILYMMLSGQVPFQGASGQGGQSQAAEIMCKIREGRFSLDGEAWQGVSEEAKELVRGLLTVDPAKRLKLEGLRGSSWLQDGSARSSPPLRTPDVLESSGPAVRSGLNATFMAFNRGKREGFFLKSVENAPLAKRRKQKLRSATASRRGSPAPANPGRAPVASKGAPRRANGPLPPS
Wee1-like protein kinase 2 (Homo sapiens), sequence (P0C1S8 whole entry, looked up): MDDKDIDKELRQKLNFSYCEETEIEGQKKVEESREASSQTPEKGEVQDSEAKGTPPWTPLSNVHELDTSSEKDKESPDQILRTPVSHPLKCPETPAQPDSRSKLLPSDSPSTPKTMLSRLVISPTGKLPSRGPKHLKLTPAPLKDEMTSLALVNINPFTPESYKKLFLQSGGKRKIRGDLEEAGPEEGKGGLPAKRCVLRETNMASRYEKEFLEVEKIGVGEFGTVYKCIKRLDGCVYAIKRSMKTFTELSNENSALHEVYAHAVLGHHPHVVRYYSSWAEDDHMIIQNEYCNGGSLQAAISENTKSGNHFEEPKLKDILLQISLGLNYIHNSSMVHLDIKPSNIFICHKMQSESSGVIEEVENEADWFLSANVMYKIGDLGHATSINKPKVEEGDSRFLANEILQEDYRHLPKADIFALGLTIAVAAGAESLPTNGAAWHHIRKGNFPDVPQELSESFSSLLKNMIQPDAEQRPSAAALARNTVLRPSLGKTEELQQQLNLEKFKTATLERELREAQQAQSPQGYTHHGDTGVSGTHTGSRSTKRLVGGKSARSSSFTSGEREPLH
Serine/threonine-protein kinase PLK3, sequence (Q9H4B4 whole entry, looked up): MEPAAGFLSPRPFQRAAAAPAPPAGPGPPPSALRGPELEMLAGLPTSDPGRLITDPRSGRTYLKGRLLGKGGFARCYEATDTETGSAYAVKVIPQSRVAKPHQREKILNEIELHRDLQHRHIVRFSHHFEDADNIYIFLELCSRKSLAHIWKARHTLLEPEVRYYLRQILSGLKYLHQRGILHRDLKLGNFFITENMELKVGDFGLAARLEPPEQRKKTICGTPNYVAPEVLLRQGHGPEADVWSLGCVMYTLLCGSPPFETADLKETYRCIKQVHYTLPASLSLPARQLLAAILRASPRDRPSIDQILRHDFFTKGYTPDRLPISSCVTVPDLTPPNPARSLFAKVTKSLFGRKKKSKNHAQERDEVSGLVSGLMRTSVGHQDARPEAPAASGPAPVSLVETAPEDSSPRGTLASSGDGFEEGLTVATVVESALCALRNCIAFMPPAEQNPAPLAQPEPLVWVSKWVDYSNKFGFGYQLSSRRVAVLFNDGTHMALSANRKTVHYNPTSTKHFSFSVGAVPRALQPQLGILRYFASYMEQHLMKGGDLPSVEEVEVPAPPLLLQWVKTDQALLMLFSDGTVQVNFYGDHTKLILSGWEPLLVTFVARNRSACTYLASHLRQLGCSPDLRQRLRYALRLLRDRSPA
Focal adhesion kinase 1, sequence (Q05397 2-1052 limits assumed): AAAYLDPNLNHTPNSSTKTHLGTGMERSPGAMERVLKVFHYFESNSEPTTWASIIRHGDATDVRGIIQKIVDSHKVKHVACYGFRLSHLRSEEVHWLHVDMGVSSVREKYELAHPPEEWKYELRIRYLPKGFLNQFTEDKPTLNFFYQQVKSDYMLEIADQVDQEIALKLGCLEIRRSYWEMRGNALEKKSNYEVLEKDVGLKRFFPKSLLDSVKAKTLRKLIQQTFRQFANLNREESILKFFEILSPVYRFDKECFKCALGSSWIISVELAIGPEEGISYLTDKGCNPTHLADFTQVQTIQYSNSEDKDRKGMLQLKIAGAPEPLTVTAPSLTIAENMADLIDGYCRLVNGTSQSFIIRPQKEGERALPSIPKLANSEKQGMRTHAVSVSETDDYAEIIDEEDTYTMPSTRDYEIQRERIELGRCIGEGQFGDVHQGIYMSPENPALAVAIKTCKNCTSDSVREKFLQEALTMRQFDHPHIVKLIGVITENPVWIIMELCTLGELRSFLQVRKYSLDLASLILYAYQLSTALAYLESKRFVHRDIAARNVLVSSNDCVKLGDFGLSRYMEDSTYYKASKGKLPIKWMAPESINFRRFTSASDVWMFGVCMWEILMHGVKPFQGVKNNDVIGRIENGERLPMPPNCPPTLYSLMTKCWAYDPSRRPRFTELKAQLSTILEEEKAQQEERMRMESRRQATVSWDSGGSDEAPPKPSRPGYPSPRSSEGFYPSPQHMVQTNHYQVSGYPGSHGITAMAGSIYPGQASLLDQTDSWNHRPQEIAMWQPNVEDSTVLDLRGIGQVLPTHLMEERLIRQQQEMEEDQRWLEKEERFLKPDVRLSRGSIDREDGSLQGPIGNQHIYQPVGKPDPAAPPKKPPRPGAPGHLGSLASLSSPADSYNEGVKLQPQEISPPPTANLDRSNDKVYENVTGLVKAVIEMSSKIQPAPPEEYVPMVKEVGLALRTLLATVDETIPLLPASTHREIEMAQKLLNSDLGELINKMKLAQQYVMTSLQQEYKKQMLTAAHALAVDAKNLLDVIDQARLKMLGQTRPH
Glycogen synthase kinase-3 alpha, sequence (P49840 2-483 limits assumed): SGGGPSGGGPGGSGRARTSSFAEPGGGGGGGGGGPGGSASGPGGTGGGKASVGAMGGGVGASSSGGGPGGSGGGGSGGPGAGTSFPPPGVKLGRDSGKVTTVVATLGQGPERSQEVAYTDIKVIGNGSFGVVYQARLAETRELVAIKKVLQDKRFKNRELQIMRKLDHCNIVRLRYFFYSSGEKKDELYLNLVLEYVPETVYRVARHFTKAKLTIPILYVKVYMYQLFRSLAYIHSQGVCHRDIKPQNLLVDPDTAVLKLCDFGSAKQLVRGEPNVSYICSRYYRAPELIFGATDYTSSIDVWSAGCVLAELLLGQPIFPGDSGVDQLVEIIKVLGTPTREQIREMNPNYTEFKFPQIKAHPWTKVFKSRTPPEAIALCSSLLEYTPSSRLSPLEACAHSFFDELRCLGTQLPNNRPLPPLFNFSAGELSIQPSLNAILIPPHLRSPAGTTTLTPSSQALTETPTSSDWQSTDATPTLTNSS
Mitogen-activated protein kinase 14, sequence (Q16539 whole entry): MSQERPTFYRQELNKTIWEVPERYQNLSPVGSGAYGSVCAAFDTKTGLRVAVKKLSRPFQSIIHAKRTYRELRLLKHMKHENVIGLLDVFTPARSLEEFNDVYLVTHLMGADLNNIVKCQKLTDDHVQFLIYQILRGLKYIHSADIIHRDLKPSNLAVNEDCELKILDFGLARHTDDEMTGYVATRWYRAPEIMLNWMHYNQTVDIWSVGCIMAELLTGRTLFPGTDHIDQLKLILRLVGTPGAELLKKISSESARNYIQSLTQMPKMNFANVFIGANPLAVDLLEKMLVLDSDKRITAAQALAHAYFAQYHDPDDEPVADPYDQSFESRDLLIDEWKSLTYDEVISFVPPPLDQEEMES
Serine/threonine-protein kinase Nek4 (Homo sapiens), sequence (P51957 whole entry, looked up): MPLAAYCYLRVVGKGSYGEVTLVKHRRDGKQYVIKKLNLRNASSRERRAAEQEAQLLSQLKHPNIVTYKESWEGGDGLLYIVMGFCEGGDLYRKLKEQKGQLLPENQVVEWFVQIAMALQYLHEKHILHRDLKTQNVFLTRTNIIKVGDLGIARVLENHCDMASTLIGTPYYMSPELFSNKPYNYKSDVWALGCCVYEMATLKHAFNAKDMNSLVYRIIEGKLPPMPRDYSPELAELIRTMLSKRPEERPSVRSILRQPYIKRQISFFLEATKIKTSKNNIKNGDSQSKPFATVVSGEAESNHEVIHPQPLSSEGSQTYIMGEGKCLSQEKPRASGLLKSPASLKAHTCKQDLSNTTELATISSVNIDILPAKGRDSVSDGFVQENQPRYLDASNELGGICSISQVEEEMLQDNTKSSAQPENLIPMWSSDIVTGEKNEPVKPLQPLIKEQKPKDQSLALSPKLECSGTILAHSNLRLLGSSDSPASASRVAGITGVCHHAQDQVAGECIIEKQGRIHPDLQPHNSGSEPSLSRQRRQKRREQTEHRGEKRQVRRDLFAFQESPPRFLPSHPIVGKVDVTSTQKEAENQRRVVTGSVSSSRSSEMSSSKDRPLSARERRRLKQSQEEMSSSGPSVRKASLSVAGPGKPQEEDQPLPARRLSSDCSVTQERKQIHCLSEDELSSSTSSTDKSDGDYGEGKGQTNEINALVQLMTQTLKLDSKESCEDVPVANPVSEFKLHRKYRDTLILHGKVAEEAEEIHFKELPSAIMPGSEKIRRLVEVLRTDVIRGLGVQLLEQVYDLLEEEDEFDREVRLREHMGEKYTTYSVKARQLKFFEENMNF

With `CC(C)(O)[C@H](F)CN1Cc2cc(NC(=O)c3cnn4cccnc34)c(N3CCOCC3)cc2C1=O`, the dTM in experiment [1] turned out to be 0.3 K.

Turning to `CN(C)C/C=C/C(=O)Nc1ccc(C(=O)N2CCCC(Nc3ncc(Cl)c(-c4c[nH]c5ccccc45)n3)C2)cc1` (stereo not drawn), the % of control on Focal adhesion kinase 1 was determined as 74%.

`CN(C)CCOc1ccc(-c2nc(-c3ccncc3)c(-c3ccc4c(c3)CC/C4=N\O)[nH]2)cc1` returned a % of control in [2] of 65%.

Take `Cc1cc(F)c(C(=O)Nc2cccc(-c3nncn3C(C)C)n2)cc1-n1cnc(C2CC2)c1`: the % of control in experiment [3] stood at 90%.

`Cn1cc(-n2cnc3c(NCc4nc5cc(Cl)c(Cl)cc5[nH]4)nc(N4CCOCC4)nc32)cn1` displayed a % of inhibition in [4] of 90.6%. The molecule also yielded a % of control in experiment [5] of 2.42%.

`CNC(=O)Nc1ccc(-c2nc(N3CC4CCC(C3)O4)c3cnn(C4CCC5(CC4)OCCO5)c3n2)cc1`: the % of control in experiment [6] was determined as 100%.

Regarding `CC[C@@H]1[C@H](F)C(=O)N[C@@H]1COc1nccc2cc(C(N)=O)c(OC)cc12` [ZIMLOVISERTIB], the % of inhibition came to 2% in [7] and 3.25% in [8].

Turning to `CN(C(=O)c1cnn2cccnc12)c1cc2c(cc1N1CCOCC1)C(=O)N(C[C@@H](F)C(C)(C)O)C2`, the dTM in [9] was found to be 0.3 K.

Consider `COCC(=O)NC/C=C/c1ccc2ncnc(Nc3ccc(Oc4ccc(C)nc4)c(C)c3)c2c1` [CP-724714], for which, in experiment [10], the % of control worked out at 81%.

The molecule `N#Cc1cccc(-c2c[nH]c3ncnc(N4CCOCC4)c23)c1` registered a % of control in experiment [11] of 100%.

Molecule `O[C@H]1CC[C@H](Nc2ncc3nc(Nc4c(F)cc(F)cc4F)n([C@H]4CCOC4)c3n2)CC1` came in with a % of control in [12] of 17%.
